{"source": "patent US10301664B2", "about": "“Repurposing non-antimicrobial drugs and clinical molecules to treat bacterial infections” (Purdue Research Foundation, priority 2015, dated 2019)", "key": {"[1]": {"tested_on": "MRSA (23) clinical isolates", "test": "MIC against Gram +ve clinical isolates: MRSA", "type": "cell-based, S. aureus", "details": "for MIC50: MRSA (23)"}, "[2]": {"tested_on": "VISA and VRSA (14) clinical isolates", "test": "MIC against Gram +ve clinical isolates: VISA and VRSA", "type": "cell-based, S. aureus"}, "[3]": {"tested_on": "VRE (14) clinical isolates", "test": "MIC against Gram +ve clinical isolates: VRE", "type": "cell-based, enterococcus"}, "A. baumannii": {"tested_on": "A. baumannii", "test": "MIC against G-ve with and without colistin: A. baumannii", "type": "cell-based"}, "E.. coli O157:H7": {"tested_on": "E.. coli O157:H7", "test": "MIC against G-ve with and without colistin: E. coli O157:H7", "type": "cell-based"}, "S. Typhimurium": {"tested_on": "S. Typhimurium", "test": "MIC against G-ve with and without colistin: S. Typhimurium", "type": "cell-based", "details": "without colistin"}, "K. pneumonia": {"tested_on": "K. pneumonia", "test": "MIC against G-ve with and without colistin: K. pneumonia", "type": "cell-based"}, "P. aeruginosa": {"tested_on": "P. aeruginosa", "test": "MIC against G-ve with and without colistin: P. aeruginosa", "type": "cell-based"}, "[4]": {"tested_on": "Colistin resistant clinical isolates of P. aeruginosa", "test": "MIC against G-ve with and without colistin: colistin resistant P. aeruginosa", "type": "cell-based", "details": "without colistin"}, "S. aureus biofilm": {"tested_on": "S. aureus biofilm", "test": "Reduction of adherent S. aureus biofilm", "type": "cell-based", "details": "compared to linezolid, mupirocin, vancomycin, rifampicin", "text": "(§1) Biofilms are a major contributing factor to lack of healing of chronic wounds, as the matrix-embedded bacteria are recalcitrant to antibiotics and host immune response, rendering them extremely challenging and costly to treat."}, "S. epidermidis biofilm": {"tested_on": "S. epidermidis biofilm", "test": "Reduction of adherent S. epidermidis biofilm", "type": "cell-based", "details": "compared to linezolid, mupirocin, vancomycin, rifampicin", "text": "as §1"}, "MRSA USA300 [5]": {"tested_on": "MRSA USA300", "test": "Mouse-model of staphylococcal skin infection: bacterial load", "type": "in vivo, BALB/c mice", "details": "topical 20 mg of 2% in petroleum jelly, twice a day for 5 days", "method": "Auranofin and ebselen were evaluated in a mouse-model of staphylococcal skin infection. Seven groups of BALB/c mice (n=5) were inoculated with MRSA USA300 (4.3×10^9 CFU/ml) intradermally. 48 hours after infection and formation of open wound, four groups were treated topically with 20 mg of 2% Ebselen, 2% Auranofin, 2% mupirocin or 2% […] in petroleum jelly (ointment—skin protectant). Two groups were treated orally with either linezolid or clindamycin (25 mg/kg). The last group received the vehicles alone (petroleum jelly). All groups were treated twice a day for 5 days.\nSince the clinical severity of bacterial skin infections is driven by the excess host pro-inflammatory cytokines rather than by bacterial burden, the recognized anti-inflammatory response of Auranofin and Ebselen combined with the potent antimicrobial, killing intracellular MRSA, and antibiofilm activities, should provide great advantage in the treatment of bacterial skin infection and wound healing. In this Example, we evaluated Auranofin and Ebselen in a mouse-model of staphylococcal skin infection. Seven groups of BALB/c mice (n=5) were inoculated with MRSA USA300 (4.3×10^9 CFU/ml) intradermally. 48 hours after infection and formation of open wound, four groups were treated topically with 20 mg of 2% ebselen, 2% auranofin, 2% mupirocin or 2% […] in petroleum jelly (ointment—skin protectant). […]"}, "[6]": {"tested_on": "pro-inflammatory cytokines (TNF-α, IL-6, IL-1β, MCP-1)", "test": "Cytokines production in MRSA skin infection in mice", "type": "in vivo", "details": "topical application", "text": "Each points represents single mice and each group has 5 mice. P values of (*P≤0.05) (**P≤0.01) are considered as significant. We investigated the immunomodulatory activity of Auranofin and ebselen in a topical application against MRSA skin infection in mice.\nIn this Example, we investigated the immunomodulatory activity of Auranofin and Ebselen in a topical application against MRSA skin infection in mice. […] These cytokines are thought to play a greater role in the severity of S. aureus skin infections more than the size of the bacterial burden and can lead to an infection persisting for a longer time period. Therefore, the ability of Auranofin and Ebselen reduces the production of these cytokines in the infected mice, indicating the clinical relevance of these drugs if used for antimicrobial treatment."}, "[7]": {"tested_on": "intracellular MRSA USA300 in J774A.1 cells", "test": "Activity against intracellular MRSA in J774A.1 cells", "type": "cell-based", "details": "compared to vancomycin and linezolid"}, "[8]": {"tested_on": "MRSA USA300-0114 toxins hla and PVL", "test": "MRSA toxin production by ELISA", "type": "cell-based, S. aureus", "details": "1 hour incubation"}, "[9]": {"tested_on": "multiple MRSA and VRSA strains", "test": "Synergy with conventional antimicrobials in vitro", "type": "cell-based, S. aureus", "details": "most tested conventional antimicrobials, all tested strains (few exceptions such as VRSA5)"}, "[10]": {"tested_on": "MRSA USA300 persister cells tolerant to ciprofloxacin", "test": "Killing of S. aureus persister cells", "type": "cell-based", "details": "added after ciprofloxacin treatment; 48 h"}, "MRSA USA300 [11]": {"tested_on": "MRSA USA300", "test": "Mouse model of MRSA systemic infection (lethal)", "type": "in vivo, BALB/c mice", "details": "three doses", "text": "(§2) For MRSA systemic infection, neutropenic Female BALB/c mice were inoculated IP with 1×10^9 MRSA USA300."}, "MRSA USA300 [12]": {"tested_on": "MRSA USA300", "test": "Non-lethal MRSA infection mice model", "type": "in vivo", "details": "two doses oral 0.25 mg/kg", "text": "as §2"}, "S. aureus": {"tested_on": "S. aureus", "test": "Macromolecular synthesis (MMS): incorporation of radioactive precursors", "type": "cell-based", "text": "In this Example we examined the effect of Auranofin and Ebselen on incorporation of radioactive precursors into macromolecules in S. aureus."}, "[13]": {"tested_on": "E. coli cellular extracts (bacterial translation process)", "test": "Bacterial transcription and translation assay, luciferase readout", "type": "biochemical", "text": "For bacterial protein-synthesis inhibition, E. coli cellular extracts in a transcription and translation assay were used to monitor protein production via luciferase readout.\n(§3) In this Example, we tested the effects of the two drugs on bacterial, mammalian and mitochondrial protein-synthesis. For bacterial protein-synthesis inhibition, we used E. coli cellular extracts in a transcription and translation assay that monitors protein production via luciferase readout."}, "[14]": {"tested_on": "rabbit reticulocyte lysate system (mammalian protein synthesis)", "test": "Mammalian protein synthesis in rabbit reticulocyte lysate system", "type": "biochemical", "text": "(IC50) of Auranofin in rabbit reticulocyte extract. […] The results are given as means±SD (data without error bars indicate that the SD is too small to be seen).\nas §3"}, "[15]": {"details": "in vivo; cited from earlier work"}, "[16]": {"details": "concentrations significantly below the MIC"}}, "data": [{"molecule": "CC(=O)OC[C@H]1O[C@@H]([S-])[C@H](OC(C)=O)[C@@H](OC(C)=O)[C@@H]1OC(C)=O.CCP(CC)CC.[Au+]", "note": "[Auranofin]", "values": [{"measurement": "MIC50", "setting": "[1]; first column per drug", "result": 0.062, "unit": "µg/mL"}, {"measurement": "MIC50", "setting": "[1]; second column per drug", "result": 0.125, "unit": "µg/mL"}, {"measurement": "MIC90 (MICs at which 90% of MRSA isolates were inhibited)", "setting": "[1]; MRSA isolates", "result": 0.125, "unit": "µg/mL"}, {"measurement": "MIC50", "setting": "[2]; first column per drug", "result": 0.062, "unit": "µg/mL"}, {"measurement": "MIC50", "setting": "[2]; second column per drug", "result": 0.062, "unit": "µg/mL"}, {"measurement": "MIC50", "setting": "[3]; first column per drug", "result": 0.125, "unit": "µg/mL"}, {"measurement": "MIC50", "setting": "[3]; second column per drug", "result": 0.125, "unit": "µg/mL"}, {"measurement": "MIC, colistin (+)", "setting": "A. baumannii; with sub-inhibitory colistin 0.0625 μg/ml", "result": 0.25, "unit": "µg/mL"}, {"measurement": "MIC, colistin (−)", "setting": "A. baumannii; without colistin", "result": 16, "unit": "µg/mL"}, {"measurement": "MIC, colistin (+)", "setting": "E.. coli O157:H7; E. coli O157:H7, with sub-inhibitory colistin 0.0625 μg/ml", "result": 0.0625, "unit": "µg/mL"}, {"measurement": "MIC, colistin (−)", "setting": "E.. coli O157:H7; E. coli O157:H7, without colistin", "result": 64, "unit": "µg/mL"}, {"measurement": "MIC, colistin (−)", "setting": "S. Typhimurium", "result": 128, "unit": "µg/mL"}, {"measurement": "MIC, colistin (+)", "setting": "K. pneumonia; with sub-inhibitory colistin 0.125 μg/ml", "result": 0.125, "unit": "µg/mL"}, {"measurement": "MIC, colistin (−)", "setting": "K. pneumonia; without colistin", "result": 256, "unit": "µg/mL"}, {"measurement": "MIC, colistin (+)", "setting": "P. aeruginosa; with sub-inhibitory colistin 0.25 μg/ml", "result": 0.0312, "unit": "µg/mL"}, {"measurement": "MIC, colistin (−)", "setting": "P. aeruginosa; without colistin", "result": 256, "unit": "µg/mL"}, {"measurement": "MIC, colistin (−)", "setting": "[4]", "result": ">256", "unit": "µg/mL"}, {"measurement": "reduction of adherent biofilm", "setting": "S. aureus biofilm", "result": "superior in reducing adherent biofilms"}, {"measurement": "reduction of adherent biofilm", "setting": "S. epidermidis biofilm", "result": "superior in reducing adherent biofilms"}, {"measurement": "bacterial load in MRSA skin lesions", "setting": "MRSA USA300 [5]", "result": "significantly reduced the bacterial load"}, {"measurement": "level of IL-6", "setting": "[6]", "result": "significantly reduced"}, {"measurement": "level of TNF-α", "setting": "[6]", "result": "significantly reduced"}, {"measurement": "level of IL-1β", "setting": "[6]; data not shown", "result": "significantly reduced"}, {"measurement": "level of MCP-1", "setting": "[6]; data not shown", "result": "significantly reduced"}, {"measurement": "reduction of intracellular MRSA", "setting": "[7]", "result": "superior in reducing intracellular MRSA"}, {"measurement": "production of toxin PVL", "setting": "[8]", "result": "significantly suppressed toxin production"}, {"measurement": "production of toxin hla", "setting": "[8]", "result": "significantly suppressed toxin production"}, {"measurement": "relationship with conventional antimicrobials in vitro", "setting": "[9]", "result": "synergistic relationship"}, {"measurement": "effect on number of planktonic persister cells", "setting": "[10]", "result": "complete eradication of planktonic persister cells"}, {"measurement": "mice survival", "setting": "MRSA USA300 [11]; oral 0.125 mg/kg once daily", "result": 40, "unit": "%"}, {"measurement": "mice survival", "setting": "MRSA USA300 [11]; oral 0.25 mg/kg once daily", "result": 80, "unit": "%"}, {"measurement": "bacterial load in the liver and spleen", "setting": "MRSA USA300 [12]", "result": "significantly reduced the bacterial load"}, {"measurement": "DNA synthesis inhibition", "setting": "S. aureus; [16]", "result": "clear dose-dependent disruption"}, {"measurement": "cell wall synthesis inhibition", "setting": "S. aureus; [16]", "result": "clear dose-dependent disruption"}, {"measurement": "protein synthesis inhibition", "setting": "S. aureus; [16]", "result": "clear dose-dependent disruption"}, {"measurement": "effect on RNA synthesis", "setting": "S. aureus; up to 4×MIC", "result": "no significant effect"}, {"measurement": "effect on lipid synthesis", "setting": "S. aureus; up to 4×MIC", "result": "no significant effect"}, {"measurement": "IC50 of bacterial translation", "setting": "[13]", "result": 0.038, "unit": "µg/mL"}, {"measurement": "inhibition of translation in mammalian protein synthesis", "setting": "[14]", "result": "did not inhibit translation"}, {"measurement": "clinically achievable blood concentration", "setting": "[15]", "result": 2.37, "unit": "µg/mL"}]}]}
